A short description of series [1]: in vitro dissolution test of Drug 2 compositions in Model Fasted Duodenal solution. It is filed as physicochemical. Particulars: for AUC / Drug 2 Concentration: MFD solution, 200 μg/mL if all dissolved; for Drug 2 Concentration: 37° C. The procedure:
(§1) The solid compositions of Examples 1-2 were evaluated in an in vitro dissolution test to ascertain concentration enhancement of Drug 1. A […] sample of each solid composition was added in duplicate to a microcentrifuge tube, so that the total concentration of Drug 1 would have been 2000 μg/mL if all of the drug had dissolved. The tubes were placed in a 37° C. temperature-controlled chamber, and 1.8 mL PBS containing 0.5 wt % sodium taurocholic acid and 1-palmitoyl-2-oleyl-sn-glycero-3-phosphocholine (NaTC/POPC, with a 4/1 weight ratio) at pH 6.5 and 290 mOsm/kg (simulating a Model Fasted Duodenal solution) was added to each respective tube. The samples were quickly mixed using a vortex mixer for about 60 seconds. The samples were centrifuged at 13,000 G at 37° C. for 1 minute. The resulting supernatant solution was then sampled and diluted 1:6 (by volume) with methanol and then analyzed by high-performance liquid chromatography (HPLC). The contents of each respective tube were mixed on a vortex mixer and allowed to stand undisturbed at 37° C. until the next sample was taken. Samples were collected at 4, 10, 20, 40, 90, and 1200 minutes.
Examples 3-4 were tested by in vitro dissolution tests to ascertain concentration enhancement of Drug 2 as in Examples 1-2, except that a sufficient amount of material was added to the Model Fasted Duodenal solution to obtain a drug concentration of 200 μg/mL if all of the drug dissolved. As a control (C2), crystalline Drug 2 alone was used.
The concentrations of drug obtained in these samples were used to determine the MDC90 and the AUC90 during the initial 90 minutes.

The next series is described as follows: Log P of the drug. As to conditions: for logP: octanol/water, Log P.
The nature of series [2]: glass transition temperature (Tg) of the drug. As to conditions: for Tg: Table B, unless noted Tg measured at less than 10% RH. It is filed as physicochemical. As to the method:
In a first aspect, the invention comprises a solid composition comprising a plurality of particles. The particles comprise a low-solubility drug and a poloxamer. The drug is in intimate contact with the poloxamer in the particles. Collectively, the drug and poloxamer constitute at least 50 wt % of the particles. At least a substantial portion of the drug in the composition is amorphous. The Tg of the drug is at least 50° C. Unless otherwise noted, as used herein the Tg refers to the Tg measured at less than 10% RH.
Such Tg values may represent that of drug dispersed in the amorphous portions of the poloxamer or the Tg of drug-rich phases or domains. […] The Tg of the drug may be at least about 60° C., at least about 70° C., or even at least about 80° C. The Tg of a drug can be determined using standard analytical techniques well known in the art, including by a dynamic mechanical analyzer (DMA), a dilatometer, a dielectric analyzer, and by differential scanning calorimetry (DSC).

The nature of series [3]: in vitro dissolution test of Drug 3 compositions in PBS. Particulars: for AUC / Drug 3 Concentration: 1000 μg/mL if all dissolved; for Drug 3 Concentration: 37° C. It is filed as physicochemical.
Series [4] can be described thus: in vitro dissolution test of Drug 5 particles in MFD solution. It is filed as physicochemical. As to conditions: dose 120 μg/mL; for Drug 5 Concentration: 37° C.
Assay in series [5]: as above
It is filed as physicochemical. As to conditions: dose 120 μg/mL; for AUC / Drug 5 Concentration: MFD solution; for Drug 5 Concentration: 37° C. As to the method: as §1
The so-formed particles were tested in vitro to ascertain concentration enhancement of Drug 5 as in Examples 1-2 at a dose of 120 μg/mL. Control C9 consisted of amorphous Drug 5 alone.
The concentration of drug obtained in these samples were used to determine the Cmax90 during the initial 90 minutes.

[6] abbreviates: Drug 5, MFDS, initial 90 minutes.

Counter-ions that a name gives are not always drawn.

Excerpt for Log P of the drug: A common measure of hydrophobicity is Log P, defined as the base 10 logarithm of the ratio of the drug solubility in octanol to the drug solubility in water. Log P may be measured experimentally or calculated using methods known in the art.

In series [1] (Drug 2, MFD, initial 90 minutes), `Cc1ncccc1CNC(=O)c1ccc2c(c1)CC[C@@H]1C[C@@](O)(CCC(F)(F)F)CC[C@@]21Cc1ccccc1` [Example C2, 2-phenanthrenecarboxamide,4b,5,6,7,8,8a,9,10-octahydro-7-hydroxy-N-[(2-methyl-3-pyridinyl)methyl]-4b-(phenylmethyl)-7-(3,3,3-trifluoropropyl)-, (4bS,7S,8aR)-] returned an AUC90 of 100 µg·min/mL. The compound also showed a Cmax90 in series [1] (Drug 2, MFD, initial 90 minutes (MDC90 in the text)) of 1 µg/mL. Moreover, the AUC (in general, the area under the concentration-time curve, a measure of exposure) in series [1] (Drug 2, time 0 min) was 0 µg·min/mL; in series [1] (Drug 2, time 4 min) it was 0 µg·min/mL; in series [1] (Drug 2, time 10 min), 0 µg·min/mL; in series [1] (Drug 2, time 20 min) it was 0 µg·min/mL; in series [1] (Drug 2, time 40 min), 0 µg·min/mL; in series [1] (Drug 2, time 90 min), 100 µg·min/mL. The compound further returned an AUC in series [1] (Drug 2, time 1200 min) of 3400 µg·min/mL. The “Drug 2 Concentration” value turned out to be 0 µg/mL in series [1] (time 0 min); 1 µg/mL in series [1] (time 4 min); 1 µg/mL in series [1] (time 10 min); 0 µg/mL in series [1] (time 20 min); 0 µg/mL in series [1] (time 40 min); 1 µg/mL in series [1] (time 90 min). Further, the “Drug 2 Concentration” value in series [1] (time 1200 min) stood at 5 µg/mL.
Turning to `CCCc1nn(C)c2c(=O)[nH]c(-c3cc(S(=O)(=O)N4CCN(C)CC4)ccc3OCC)nc12` [1-[4-ethoxy-3-(6,7-dihydro-1-methyl-7-oxo-3-propyl-1H-pyrazolo[4,3-d]pyrimidin-5-yl)phenylsulphonyl]-4-methylpiperazine], the lipophilicity (logP) (usually the decadic logarithm of the partition coefficient of the neutral form, usually between octanol and water) in “Log P of the drug” was determined as 7. In addition, the Tg in series [2] is 135 °C.
As to `CCc1cc(Oc2cccc(N(Cc3cccc(OC(F)(F)C(F)F)c3)C[C@@H](O)C(F)(F)F)c2)ccc1Cl` [Drug 5, (2R)-3-[[3-(4-chloro-3-ethylphenoxy)phenyl][[3-(1,1 ,2,2-tetrafluoroethoxy)phenyl]methyl]amino]-1,1,1-trifluoro-2-propanol], in the series “Log P of the drug”, the Log P (as a rule, a log measure of how a compound divides between an organic and an aqueous phase) is on record as 10.1; the lipophilicity (logP) is about 10. The “Tg,drug” value in series [2] (RH not stated) is “about −15 °C”.
As for `CCC(CC)Nc1cc(C)nc(Oc2c(C)cc(C)cc2C)c1C` [[3,6-dimethyl-2-(2,4,6-trimethyl-phenoxy)-pyridin-4-yl]-(1-ethyl-propyl)-amine], in the series “Log P of the drug”, the logP came out at 7.
Consider `CCOC(=O)N1c2ccc(C(F)(F)F)cc2[C@@H](N(Cc2cc(C(F)(F)F)cc(C(F)(F)F)c2)C(=O)OC)C[C@H]1CC` [Drug 4, [2R,4S] 4-[(3,5-bis-trifluoromethyl-benzyl)-methoxycarbonyl-amino]-2-ethyl-6-trifluoromethyl-3,4-dihydro-2H-quinoline-1-carboxylic acid ethyl ester], for which, in the series “Log P of the drug”, the “Log P” value is listed as 7.3 and the logP is about 7.5. In addition, the “Tg,drug” value in series [2] (at ambient RH) was “about 28 °C”.
As to `Cc1c(O)cccc1C(=O)N[C@@H](CSc1ccccc1)[C@H](O)CN1C[C@H]2CCCC[C@H]2C[C@H]1C(=O)NC(C)(C)C` [Example C3, nelfinavir mesylate], the AUC90 in series [3] (Drug 3, initial 90 minutes) is 400 µg·min/mL. Further, the Cmax90 in series [3] (Drug 3, initial 90 minutes (MDC90 in the text)) was 6 µg/mL. Further, the AUC in series [3] (Drug 3, time 0 min) is 0 µg·min/mL; in series [3] (Drug 3, time 4 min) it was 0 µg·min/mL; in series [3] (Drug 3, time 10 min) it was 0 µg·min/mL; in series [3] (Drug 3, time 20 min), 100 µg·min/mL; in series [3] (Drug 3, time 40 min), 200 µg·min/mL; in series [3] (Drug 3, time 90 min) it was 400 µg·min/mL. The AUC in series [3] (Drug 3, time 1200 min) was 5100 µg·min/mL. Further, the “Drug 3 Concentration” value worked out at 0 µg/mL in series [3] (time 0 min); 5 µg/mL in series [3] (time 4 min); 5 µg/mL in series [3] (time 10 min); 6 µg/mL in series [3] (time 20 min); 6 µg/mL in series [3] (time 40 min); 4 µg/mL in series [3] (time 90 min). Also, the “Drug 3 Concentration” value in series [3] (time 1200 min) was 5 µg/mL.
In the series “Log P of the drug”, `CC[C@@H]1C[C@H](N(Cc2cc(C(F)(F)F)cc(C(F)(F)F)c2)C(C)=O)c2cc(C(F)(F)F)ccc2N1C(=O)OC(C)C` [[2R,4S] 4-[acetyl-(3,5-bis-trifluoromethyl-benzyl)-amino]-2-ethyl-6-trifluoromethyl-3,4-dihydro-2H-quinoline-1-carboxylic acid isopropyl ester] registered a logP of 6.9.
With `CCc1cc(Oc2cccc(N(Cc3cccc(OC(F)(F)C(F)F)c3)C[C@@H](O)C(F)(F)F)c2)ccc1Cl` [Example C9, (2R)-3-[[3-(4-chloro-3-ethylphenoxy)phenyl][[3-(1,1 ,2,2-tetrafluoroethoxy)phenyl]methyl]amino]-1,1,1-trifluoro-2-propanol], the AUC in series [4] (Drug 5, time 0 min) was 0 µg·min/mL; in series [4] (Drug 5, time 3.5 min), 5 µg·min/mL; in series [4] (Drug 5, time 7.25 min), 17 µg·min/mL; in series [4] (Drug 5, time 11 min), 34 µg·min/mL; in series [4] (Drug 5, time 20 min), 96 µg·min/mL; in series [5] (Drug 5, time 40 min), 330 µg·min/mL. Moreover, the AUC in series [5] (Drug 5, time 90 min) is 1,400 min * μg/mL; in series [5] (Drug 5, time 1200 min), 60,700 min * μg/mL. Further, the “Drug 5 Concentration” value in series [4] (time 3.5 min) amounted to 2.8 µg/mL; in series [4] (time 7.25 min) it was 3.8 µg/mL; in series [4] (time 11 min), 5.3 µg/mL; in series [4] (time 20 min), 8.4 µg/mL; in series [5] (time 0 min), 0 µg/mL; in series [5] (time 40 min), 15 µg/mL. Besides, the “Drug 5 Concentration” value in series [5] (time 90 min) was 29 µg/mL; in series [5] (time 1200 min), 78 µg/mL. Besides, the AUC90 in series [5] (setting [6]) is reported as 1,400 min * μg/mL. Moreover, in series [5] (setting [6]), the Cmax90 was 29 µg/mL.
In the case of `Cc1ncccc1CNC(=O)c1ccc2c(c1)CC[C@@H]1C[C@@](O)(CCC(F)(F)F)CC[C@@]21Cc1ccccc1` [Drug 2, 2-phenanthrenecarboxamide,4b,5,6,7,8,8a,9,10-octahydro-7-hydroxy-N-[(2-methyl-3-pyridinyl)methyl]-4b-(phenylmethyl)-7-(3,3,3-trifluoropropyl)-, (4bS,7S,8aR)-], in “Log P of the drug”, the “Log P” value was “about 6.2”. The Tg in series [2] came to 99 °C. The “Tg,drug” value in series [2] (at 0% RH) was found to be 99 °C.

These data come from patent publication US8974823B2, “Solid compositions of low-solubility drugs and poloxamers” (Bend Research, Inc., priority 2003, dated 2015).
